Numbers after ± are expanded uncertainties.
What was measured:
[1] = 298.15 K; 101.33 kPa; Liquid
[2] = refractive index (Na D-line) (dimensionless); conditions: 293.15 K; 101.33 kPa; Liquid; Standard Abbe refractometry

Structure (SMILES)	mass density [1] [kg/m3]	refractive index [2]
Cc1ccccc1C [1,2-dimethylbenzene]	875.73 ± 0.44	1.5057 ± 0.0007
Cc1cccc(C)c1 [1,3-dimethylbenzene]	859.83 ± 0.99	1.4973 ± 0.0008
Cc1ccc(C)cc1 [1,4-dimethylbenzene]	856.58 ± 0.63	1.49577 ± 0.00075
C[S+](C)[O-] [dimethyl sulfoxide]	1095.62 ± 0.39	1.4785 ± 0.0007
